The record followed here is patent US4230692A, “Ravidomycin and process of preparation” (Ayerst McKenna & Harrison, Inc., priority 1978, dated 1980).

The subject of data set [1] is colon 38 tumor. The experiment in a line: Colon 38 tumor weight in mice. The note with it: dose level 25 mg/kg; evaluated on 20th day of implantation in mice. Type of data set: in vivo. Here is the method:
(j) Ravidomycin causes 50% reduction in colon 38 tumor weight at dose level of 25 mg/kg. evaluated on 20th day of implantation in mice.

Data set [2] in a line: Solubility in organic solvents.
The nature of data set [3]: Acute intraperitoneal LD50 in mice. The note with it: mouse, in vivo, ip, LD50, acute, per body weight.
The test system of data set [4] is mice. The experiment in a line: Acute intraperitoneal LD50 in mice. The note with it: acute, i.p., per body weight.
The test system of data set [5] is Streptomyces ravidus NRRL 11,300. The experiment in a line: Streptomycin resistance of the producing organism. The note with it: 10 μg streptomycin per ml.

Regarding `C=Cc1cc(OC)c2c(c1)c(=O)oc1c2cc(OC)c2c(O)ccc(C3OC(C)C(OC(C)=O)C(N(C)C)C3O)c21` (centres unmarked) [ravidomycin], the “reduction in colon 38 tumor weight” value in data set [1] is listed as 50%. Also, the solubility entry in data set [2] (in acetone, methanol, ethanol, chloroform) is “soluble”; in data set [2] (in diethyl ether) it was “sparingly soluble”. The LD50 (commonly the dose at which mortality reaches 50%) was above 400 mg/kg in data set [3], “greater than 400 mg/kg” in data set [4] and 400 mg/kg in data set [4] (listed as Ravidomycin).

For the compound `[H]/N=C(/N)N[C@H]1[C@H](O)[C@@H](O)[C@H](O[C@@H]2O[C@@H](C)[C@](O)(C=O)[C@H]2O[C@@H]2O[C@@H](CO)[C@H](O)[C@@H](O)[C@@H]2NC)[C@@H](N/C(N)=N\[H])[C@@H]1O` [streptomycin], the results for the “resistance of Streptomyces ravidus to streptomycin” value in data set [5] and in data set [5] (listed as Streptomycin) were “resistant” and “Resistant”, respectively.
